Consider 31 compounds from ChEMBL document CHEMBL3769338, “Tricyclic phenothiazine and phenoselenazine derivatives as potential multi-targeting agents to treat Alzheimer's disease” (Medchemcomm, 2015).

Active and inactive are the calls of the source. The calls are words filed in the database; no cut-off is given here.

Data set [1] addresses T1, Cholinesterase (Homo sapiens, UniProt P06276). In words: Potency index, ratio of galantamine IC50 to compound IC50 for inhibition of human BuChE.
The target in data set [2] is Amyloid-beta precursor protein (Homo sapiens) (UniProt P05067). In words: Inhibition of amyloid beta (1-42) self-induced aggregation (unknown origin) at 10 uM measured every 5 mins for 16 hrs by thioflavin T fluorescence method relative to control.
Sequence of Amyloid-beta precursor protein (Homo sapiens) (P05067 whole entry): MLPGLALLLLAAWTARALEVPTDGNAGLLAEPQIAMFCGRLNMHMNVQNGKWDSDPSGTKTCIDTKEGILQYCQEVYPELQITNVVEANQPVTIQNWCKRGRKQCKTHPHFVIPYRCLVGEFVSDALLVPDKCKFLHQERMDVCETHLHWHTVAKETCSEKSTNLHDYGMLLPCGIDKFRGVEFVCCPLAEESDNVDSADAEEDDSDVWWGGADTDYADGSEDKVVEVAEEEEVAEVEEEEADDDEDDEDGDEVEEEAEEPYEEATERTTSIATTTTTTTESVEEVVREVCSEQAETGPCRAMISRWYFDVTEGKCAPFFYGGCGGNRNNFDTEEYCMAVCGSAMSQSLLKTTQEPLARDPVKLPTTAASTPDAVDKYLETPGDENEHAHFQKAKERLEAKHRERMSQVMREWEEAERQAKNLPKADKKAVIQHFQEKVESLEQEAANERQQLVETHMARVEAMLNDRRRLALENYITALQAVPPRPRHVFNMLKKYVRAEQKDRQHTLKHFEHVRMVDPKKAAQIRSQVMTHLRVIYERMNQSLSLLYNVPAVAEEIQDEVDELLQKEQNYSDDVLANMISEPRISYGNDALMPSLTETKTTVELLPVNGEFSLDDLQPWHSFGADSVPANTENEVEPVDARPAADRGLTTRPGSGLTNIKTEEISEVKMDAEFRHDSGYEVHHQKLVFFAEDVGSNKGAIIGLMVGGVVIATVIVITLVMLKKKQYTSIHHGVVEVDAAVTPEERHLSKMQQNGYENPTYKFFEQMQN
Data set [3] deals with Acetylcholinesterase (Homo sapiens, UniProt P22303). As to the kind of experiment: Inhibition of human AChE using acetylthiocholine iodide as substrate preincubated for 5 mins followed by substrate addition measured after 60 to 300 sec by Ellman's method. For orientation: DTNB colorimetry detects thiols as they appear.
Sequence of Acetylcholinesterase (P22303 whole entry): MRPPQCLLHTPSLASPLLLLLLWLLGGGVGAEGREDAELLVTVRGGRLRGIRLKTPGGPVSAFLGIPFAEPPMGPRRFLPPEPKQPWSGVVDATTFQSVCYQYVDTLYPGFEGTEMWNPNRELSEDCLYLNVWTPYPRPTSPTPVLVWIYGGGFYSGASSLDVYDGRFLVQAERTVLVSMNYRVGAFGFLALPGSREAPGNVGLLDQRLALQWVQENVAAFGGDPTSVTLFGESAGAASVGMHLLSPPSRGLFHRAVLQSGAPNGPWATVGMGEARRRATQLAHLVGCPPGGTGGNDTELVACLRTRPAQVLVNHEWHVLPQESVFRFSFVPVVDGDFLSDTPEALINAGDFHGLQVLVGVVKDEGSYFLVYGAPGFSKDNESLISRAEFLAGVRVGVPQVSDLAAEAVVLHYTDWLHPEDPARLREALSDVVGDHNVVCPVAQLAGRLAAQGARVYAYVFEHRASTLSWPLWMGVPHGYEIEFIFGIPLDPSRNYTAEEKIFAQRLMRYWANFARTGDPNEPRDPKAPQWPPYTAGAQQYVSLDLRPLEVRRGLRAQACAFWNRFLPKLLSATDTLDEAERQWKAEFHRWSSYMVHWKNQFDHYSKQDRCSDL
Data set [4] in a line: Antioxidant activity assessed as DPPH free radical scavenging activity at 50 uM incubated for 60 mins in dark relative to control. It counts as physicochemical. To be noted: 1 h. Background: DPPH is a stable violet radical that fades when it is reduced.
A short description of data set [5]: Cytotoxicity against human SH-SY5Y cells assessed as cell viability at 50 uM after 24 hrs by MTT assay relative to untreated control. It counts as cell-based. The conditions noted are these: read-out: Activity.
In data set [6] the target is Amyloid-beta precursor protein (Homo sapiens) (UniProt P05067). In words: Inhibition of amyloid beta (1-42) self-induced aggregation (unknown origin) measured every 5 mins for 16 hrs by thioflavin T fluorescence method.
The target is the same in data set [7]. As to the kind of experiment: Inhibition of amyloid beta (1-42) self-induced aggregation (unknown origin) at 1 uM measured every 5 mins for 16 hrs by thioflavin T fluorescence method relative to control.
The target is the same in data set [8]. As to the kind of experiment: Inhibition of amyloid beta (1-42) self-induced aggregation (unknown origin) at 25 uM measured every 5 mins for 16 hrs by thioflavin T fluorescence method relative to control.
Data set [9] has as its target T1, Cholinesterase.
Description: Inhibition of human BuChE using S-butyrylthiocholine iodide as substrate preincubated for 5 mins followed by substrate addition measured after 60 to 300 sec by Ellman's method
Data set [10] deals with Amyloid-beta precursor protein (Homo sapiens) (UniProt P05067). In words: Inhibition of amyloid beta (1-42) self-induced aggregation (unknown origin) at 5 uM measured every 5 mins for 16 hrs by thioflavin T fluorescence method relative to control.

T1 sequence (P06276 whole entry): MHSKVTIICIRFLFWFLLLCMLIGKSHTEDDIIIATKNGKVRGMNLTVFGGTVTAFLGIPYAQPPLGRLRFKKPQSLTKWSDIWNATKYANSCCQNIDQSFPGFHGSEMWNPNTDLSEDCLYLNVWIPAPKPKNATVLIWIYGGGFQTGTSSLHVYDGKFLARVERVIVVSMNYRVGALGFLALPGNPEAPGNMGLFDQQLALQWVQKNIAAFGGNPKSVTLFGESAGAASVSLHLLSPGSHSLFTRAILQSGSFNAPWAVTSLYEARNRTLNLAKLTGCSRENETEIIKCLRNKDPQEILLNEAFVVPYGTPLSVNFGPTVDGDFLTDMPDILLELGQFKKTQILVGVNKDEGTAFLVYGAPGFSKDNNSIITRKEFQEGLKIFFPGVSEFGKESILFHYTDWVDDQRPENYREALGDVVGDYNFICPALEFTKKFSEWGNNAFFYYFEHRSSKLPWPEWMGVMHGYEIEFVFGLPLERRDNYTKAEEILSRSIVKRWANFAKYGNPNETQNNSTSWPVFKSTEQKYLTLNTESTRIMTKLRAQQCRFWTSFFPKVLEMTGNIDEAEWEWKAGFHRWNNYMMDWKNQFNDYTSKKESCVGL

Usually inhibition stands for the share of the control response that was lost under treatment. Usually IC50 stands for the point on the concentration scale where inhibition reaches its midpoint. Read a low IC50 as greater potency in that assay. On to `c1ccc2c(c1)Nc1ccccc1[Se]2`, for which the Ratio IC50 in data set [1] came to 22. For the same compound, the inhibition is 30.7% in [2]; “Dose-dependent effect” in data set [6]; 16.3% in [7]; 45.6% in data set [8]; 24.1% in data set [10]. Further, the IC50 in [3] worked out at 5.6 µM; in data set [9] it was 3 µM. Further, the “inhibition (INH)” value in data set [4] amounted to 84.4%. Also, the viability at 24 h, 50 µM in [5] turned out to be 76%.

As for `O=C(c1ccccc1)N1c2ccccc2Sc2ccccc21`, the IC50 is 8 µM in [3] and more than 100 µM in data set [9].

Consider `O=C(Cc1ccccc1)N1c2ccccc2Sc2ccccc21`, for which the IC50 in [3] worked out at 7.4 µM; in [9] it was 38.3 µM.

For `COc1ccc(C(=O)N2c3ccccc3[Se]c3ccc(Cl)cc32)cc1`, the values for the IC50 in data set [3] and in [9] were 5.8 µM and 4.9 µM, respectively.

As to `O=C(CCc1ccccc1)N1c2ccccc2Sc2ccccc21`, the IC50 in data set [3] was 7.1 µM; in data set [9], 51 µM.

Take `O=C(c1ccccc1)N1c2ccccc2[Se]c2ccccc21`: the IC50 worked out at 5.4 µM in data set [3] and 22.7 µM in [9].

`O=C(Cc1ccccc1)N1c2ccccc2[Se]c2ccccc21`: the IC50 in [3] was 6.4 µM; in data set [9], 11 µM.

Take `c1ccc2c(c1)Nc1ccccc1S2` [PHENOTHIAZINE]: the Ratio IC50 in data set [1] is 11. Besides, the inhibition is 59.1% in data set [2]; “Dose-dependent effect” in data set [6]; 18.3% in data set [7]; 62% in data set [8]; 37.2% in [10]. Further, the IC50 in [3] amounted to 7.3 µM; in data set [9] it was 5.8 µM. Further, the “inhibition (INH)” value in [4] was determined as 92.1%. Moreover, in [5], the viability at 24 h, 50 µM worked out at 63.3%.

As for `COc1cccc(C(=O)N2c3ccccc3Sc3ccccc32)c1`, the IC50 in data set [3] was determined as 6.2 µM; in data set [9] it was 25.5 µM.

`COc1ccc(C(=O)N2c3ccccc3Sc3ccc(Cl)cc32)cc1`: the IC50 in data set [3] amounted to 5.9 µM; in data set [9], 5.3 µM.

Regarding `COc1cccc(C(=O)N2c3ccccc3[Se]c3ccccc32)c1`, the results for the concentration for half-maximal inhibition (IC50) in data set [3] and in [9] were 6.2 µM and 9.6 µM, respectively.

With `Cc1c(C)c2c(c(C)c1O)CCC(C)(C(=O)O)O2` (configuration not stated) [TROLOX], the “inhibition (INH)” value in data set [4] is 99.2%.

Turning to `COc1cccc(C(=O)N2c3ccccc3Sc3ccc(Cl)cc32)c1`, the IC50 in [3] stood at 4.6 µM; in data set [9], 30.8 µM.

Consider `O=C(CCc1ccccc1)N1c2ccccc2[Se]c2ccccc21`, for which the IC50 turned out to be 6.7 µM in data set [3] and 38 µM in [9].

As to `O=C(Cc1ccccc1)N1c2ccccc2[Se]c2ccc(Cl)cc21`, the results for the IC50 in data set [3] and in data set [9] were 6.5 µM and 5 µM, respectively.

With `COc1ccc(C(=O)N2c3ccccc3[Se]c3ccccc32)cc1`, the IC50 came out at 4.6 µM in data set [3] and 11.1 µM in data set [9].

Consider `O=C(CCc1ccccc1)N1c2ccccc2[Se]c2ccc(Cl)cc21`, for which the results for the IC50 in [3] and in data set [9] were 6.3 µM and 40 µM, respectively.

For the compound `COc1ccc(C(=O)N2c3ccccc3Sc3ccccc32)cc1OC`, the inhibition entry in data set [2], in [7], in data set [8] and in data set [10] was “inactive” in each case. In addition, the IC50 in data set [3] worked out at 5.8 µM; in data set [9] it was 45 µM. Moreover, the “inhibition (INH)” value in data set [4] is 44.3%. Besides, the viability at 24 h, 50 µM in [5] turned out to be 63.3%.

Regarding `O=S(=O)(O)c1cc(S(=O)(=O)O)c2c(/N=N/c3ccccc3)c(O)ccc2c1`, the inhibition was determined as 31% in data set [2], 8.6% in data set [7], 57.2% in data set [8] and 20.4% in data set [10].

As for `COc1ccc(C(=O)N2c3ccccc3[Se]c3ccccc32)cc1OC`, the inhibition came to 8.7% in data set [2], 6.3% in data set [7], 11.1% in data set [8] and 5.7% in data set [10]. Further, the IC50 in data set [3] came out at 5.1 µM; in [9], 9.1 µM. Also, the “inhibition (INH)” value in data set [4] turned out to be 39%. In data set [5], the viability at 24 h, 50 µM was 76%.

In the case of `O=C(c1ccccc1)N1c2ccccc2[Se]c2ccc(Cl)cc21`, the IC50 in data set [3] was 6 µM; in [9], 3.8 µM.

As for `Clc1ccc2c(c1)Nc1ccccc1[Se]2`, the inhibition in data set [2] is 25.1%; in data set [7], 14.5%; in [8], 45%; in data set [10] it was 18.5%. In addition, the results for the IC50 in data set [3] and in data set [9] were 6.3 µM and 4.7 µM, respectively. Moreover, in data set [4], the “inhibition (INH)” value was found to be 73.2%. In data set [5], the viability at 24 h, 50 µM was determined as 43%.

In the case of `Clc1ccc2c(c1)Nc1ccccc1S2`, the inhibition in [2] worked out at 33.7%; in [7], 10.3%; in data set [8], 60.8%; in data set [10], 22%. The IC50 is 7.4 µM in [3] and 19.2 µM in data set [9]. Further, the “inhibition (INH)” value in data set [4] was found to be 76.4%. Further, the viability at 24 h, 50 µM in [5] came to 63.3%.

Regarding `COc1cccc(C(=O)N2c3ccccc3[Se]c3ccc(Cl)cc32)c1`, the IC50 was determined as 5.9 µM in data set [3] and 19.3 µM in data set [9].

Regarding `COc1ccc(C(=O)N2c3ccccc3Sc3ccccc32)cc1`, the half-maximal inhibitory concentration (IC50) in data set [3] stood at 6.3 µM; in data set [9] it was 53 µM.

On to `O=C(CCc1ccccc1)N1c2ccccc2Sc2ccc(Cl)cc21`, for which the IC50 was determined as 7.9 µM in data set [3] and 5 µM in [9].

With `COc1ccc(C(=O)N2c3ccccc3[Se]c3ccc(Cl)cc32)cc1OC`, the inhibition was 9.1% in [2], 8.4% in data set [7], 5.9% in data set [8] and 7.9% in data set [10]. Also, the IC50 in data set [3] came out at 6.2 µM; in [9] it was 5.7 µM. In data set [4], the “inhibition (INH)” value is listed as 38.3%. Further, the viability at 24 h, 50 µM in data set [5] is 76%.

Turning to `O=c1c2ccccc2[se]n1-c1ccccc1` [EBSELEN], the results for the IC50 in data set [3] and in [9] were 6.2 µM and 4.6 µM, respectively. The “inhibition (INH)” value in data set [4] was 34.7%. For the same compound, the viability at 24 h, 50 µM in data set [5] was 53.9%.

Regarding `COc1ccc(C(=O)N2c3ccccc3Sc3ccc(Cl)cc32)cc1OC`, the inhibition worked out at 6.5% in [2], 6.2% in [7], 5.9% in data set [8] and 4.5% in data set [10]. Further, the results for the IC50 in data set [3] and in data set [9] were 6.4 µM and 32.6 µM, respectively. Further, the “inhibition (INH)” value in data set [4] is on record as 46.5%. Besides, in data set [5], the viability at 24 h, 50 µM was 63.3%.

On to `O=C(c1ccccc1)N1c2ccccc2Sc2ccc(Cl)cc21`, for which the IC50 in data set [3] came out at 9.9 µM; in [9] it was 9.3 µM.

In the case of `O=C(Cc1ccccc1)N1c2ccccc2Sc2ccc(Cl)cc21`, the IC50 in data set [3] is 7.5 µM; in data set [9], 3.6 µM.
